For assay [1], the system named is 3B11 endothelial cells. Description: Matrigel plug angiogenesis assay with stably transfected 3B11 cells. The following applies: 3B11 cells stably transfected with mouse SerRS gene, C3H/HeJ mice, 14 days. Type of assay: in vivo. As to the method:
In FIG. 4A, mouse 3B11 endothelial cells were stably transfected with mouse wild type SerRS or mutant SerRS and the expression of SerRS were examined by immunoblot with anti-SerRS antibody and quantified by the density of the bands. In FIGS. 4B-C, Matrigel plug angiogenesis assay was performed with stably transfected 3B11 cells in C3H/HeJ mice. Matrigel plugs (dash lines enclosed regions) excised 14 days after implantation were analyzed by immunohistochemistry for CD31 (FIG. 4B) and microvessel density was quantified (FIG. 4C) (n=10-15).
A total of 10^6 of stably transfected 3B11 cells were resuspended in 100 μl of DMEM medium supplemented with 10% FBS and then mixed with 200 μl of ice-cold matrigel (BD Biosciences, San Jose, Calif., USA) liquid on ice. The 300 μl of cell and matrigel mixture was injected subcutaneously into a flank of C3H/HeJ mice (two injection sites per mouse and 5-6 mice in each group) (Jackson Laboratory). After inoculation for 14 days, the matrigel plugs were excised and frozen in Tissue-Tek® OCT compound for cryostat sectioning. All the mouse experiments were conducted according to the guidelines established by the Institutional Animal Care and Use Committee (IACUC) at The Scripps Research Institute, IACUC approval protocol number 13-0003.
5-μm sections from freshly frozen tumor xenograft and matrigel plugs were treated with acetone and 3% H2O2 to block endogenous peroxidase. After 3-5 times wash and goat serum block, the sections were incubated with an anti-CD31 antibody (1:3000; Cell Signaling Technology) overnight at 4° C. The blood vessels were counted in 5-10 random viable fields (120×) in tumor xenograft samples and microvessel density in matrigel plugs was quantified by measuring the CD31 staining density using Image J software. To detect the hypoxia, we incubated the slides with anti-HIF1α antibody (1:100; Novus Biologicals).
A matrigel plug angiogenesis assay was used. […] At the same time, the microvasculature in the plug was evaluated by CD31 immuno-staining.

In assay [2] the test system is zebrafish embryos. Description: Intersegmental vessel (ISV) branching in zebrafish embryos. The class given is in vivo. The following applies: human SerRS mRNA co-injected with SerRS-MO, 3 dpf. The protocol: In FIG. 2A, wild type SerRS (SerRS^WT), its mutants with double substitutions of serine 101 and 241 with alanine or aspartic acid residues (SerRS^S101A/S241A and SerRS^S101D/S241D), or empty vector were transfected into HEK293 cells. The expression levels of SerRS proteins was measured by immunoblot (bottom) and VEGFA expression was determined by qRT-PCR (means±SEM from three independent experiments; ***P<0.0001). In FIGS. 2B-D, the roles of SerRS^S101A/S241A and SerRS^S101D/S241D in regulating vascular development in vivo in zebrafish were examined by co-injection of SerRS^S101A/S241A and SerRS^S101D/S241D mRNAs into one-cell-stage embryos whose endogenous SerRS was knocked down by injection of antisense morpholino (SerRS-MO) that led to abnormal high expression of Vegfa and hypervascularization (shown by short bold arrows in FIG. 2C). At 3 day post fertilization (dpf), embryos were harvested and Vegfa expression levels were measured by qRT-PCR (means±SEM, n=125-211; *P<0.01, **P<0.001) (B). The development of intersegmental vessel (ISV) at 3 dpf was examined (C) and the statistics of ISV abnormal branching rescued by SerRS^WT or mutant SerRS mRNA injections was analyzed (D; χ^2-test,* P>0.05 vs SerRS^WT, **P>0.1 vs SerRS-MO, ***P<1×10^−28 vs control-MO). In FIG. 2E, the binding affinities of SerRS^WT or SerRS^S101D/S241D with ^32P labeled DNA fragments corresponding to SerRS binding site on human VEGFA promoter were examined by EMSA. In FIG. 2F, the binding of SerRS^WT, SerRS^S101A/S241A, or SerRS^S101D/S241D on VEGFA promoter in HEK293 cells was examined by chromatin immunoprecipitation (ChIP) and qPCR (means±SEM from two independent experiments; ***P<0.0001). In FIG. 2G, the binding of endogenous SerRS on VEGFA promoter during hypoxia course was monitored by ChIP (means±SEM from three independent experiments; *P<0.05, **P<0.005 vs normal).
Transgenic Tg (Fli1a: EGFP) fish were maintained as we described before (Ref). The fish embryos were kept at 28.5° C. before and after microinjection. The antisense morpholino (MOs) targeting SerRS was injected into the yolk of 1-cell stage embryos at the dosage of 4˜5 ng per embryo. The sequence of SerRS-MO is (Ref). The SerRS-MO (5′ AGGAGAATGTGAACAAACCTGACAC 3′ (SEQ ID NO: 34)) and standard control MO (5′ CCTCTTACCTCAGTTACAATTTATA 3′ (SEQ ID NO: 35)) were purchased from Gene Tools, LLC (Philomath, Oreg. USA). After injection, embryos were incubated in E3 embryo medium supplemented with 0.003% 1-phenyl-2-thiourea (PTU) at 28.5° C. to prevent pigment formation. […] The rescue effects of different SerRS mutants on ISV development were analyzed with χ^2 test. […]

Regarding “SerRS^S101A/S241A: phosphorylation-deficient human SerRS double mutant, serine 101 and 241 to alanine, SEQ ID NO: 4 (mouse version in matrigel assay)”, the “microvessel formation in the matrigel plug (CD31)” value (shortened to “microvessel formation”) in assay [1] is given as “strongly suppressed the microvessel formation”. Also, in assay [2], the “zebrafish embryos with abnormal hyper-ISV branching phenotype” value (shortened to “zebrafish embryos”) is listed as 26.4%.

Consider “SerRS^WT: wildtype human seryl-tRNA synthetase protein, SEQ ID NO: 1 (mouse wild type used in the 3B11 matrigel assay)”, for which the “microvessel formation” value in assay [1] is listed as “did not suppress microvascular formation”. In assay [2], the “zebrafish embryos” value is reported as 17.9%.

As to “SerRS^S101D/S241D: SerRS with double substitutions of S101 and S241 with aspartic acid, mimics the phosphorylated SerRS”, in assay [1], the “microvessel formation” value is “did not suppress microvascular formation”. Moreover, in assay [2], the “zebrafish embryos” value amounted to 62.7%.

(Values after patent publication US20190167771A1, “CONTROL ANGIOGENESIS BY REGULATING PHOSPHORYLATION OF SERYL-tRNA SYNTHETASE (SerRS)” (The Scripps Research Institute, priority 2016, published 2019).)
